logP	SMILES
3.51	CNC12CCCCC1Cc1cc(OC)ccc12 (stereo unspecified)
2.48	CNCC1CCC2(NC)c3ccccc3CC2C1 (stereo unspecified)
3.77	CNC12CCCCCC1Cc1ccccc12 (stereo unspecified)
3.79	C=C1c2ccccc2C2(NC)CCCCC12 (stereo unspecified)
1.84	CNC12CCC(CN)CC1Cc1ccccc12 (stereo unspecified)
3.8	CCNC12c3ccccc3CC1CCCC2C (stereo unspecified)
3.44	CNC12c3ccccc3CC1CCCC2C (stereo unspecified)
3.54	CNC12CCCCC1Cc1ccc(OC)cc12 (stereo unspecified)

SMILES	logP
CNC12CCCCC1Cc1ccccc12 (stereo unspecified)	3.38
NC12CCCC1Cc1ccccc12 (stereo unspecified)	2.58
CNC12CCCCC1c1ccccc1C2 (stereo unspecified)	3.43

From the OPERA property sets (Mansouri et al. 2018)
